Source: patent US9249163B2, “PDE10a inhibitors for the treatment of type II diabetes” (Janssen Pharmaceutica, NV, priority 2013, dated 2016)
Counter-ions that a name gives are not always drawn.

Assays:
[1] = molecular target: Rat recombinant PDE10a (rPDE10a) (Rattus norvegicus (Rat), UniProt Q9QYJ6); assay: In vitro assay PDE10a (rat recombinant PDE10a, SPA); type: biochemical; settings: 60 nM cAMP, 60 min at rt, read-out: rPDE10a2 IC50
Method: Rat recombinant PDE10a (rPDE10a) was expressed in Sf9 cells using a recombinant rPDE10a baculovirus construct. Cells were harvested after 48 h of infection and the rPDE10a protein was purified by metal chelate chromatography on Ni-sepharose 6FF. Tested compounds were dissolved and diluted in 100% DMSO to a concentration 100 fold of the final concentration in the assay. Compound dilutions (0.4 μL) were added in 384 well plates to 20 μL of incubation buffer (50 mM Tris pH 7.8, 8.3 mM MgCl2, 1.7 mM EGTA). 10 μL of rPDE10a enzyme in incubation buffer was added and the reaction was started by addition of 10 μL substrate to a final concentration of 60 nM cAMP and 0.008 μCi ^3H-cAMP. The reaction was incubated for 60 min at rt. After incubation, the reaction was stopped with 20 μL of 17.8 mg/mL PDE SPA beads. After sedimentation of the beads during 30 min the radioactivity was measured in a Perkin Elmer Topcount scintillation counter and results were expressed as cpm. For blank values the enzyme was omitted from the reaction and replaced by incubation buffer. Control values were obtained by addition of a final concentration of 1% DMSO instead of compound.

[2] = molecular target: Human recombinant PDE10A2 (Homo sapiens (Human), UniProt Q9Y233); assay: In vitro hPDE10a (human recombinant PDE10A2, scintillation proximity assay); type: biochemical; settings: human recombinant PDE10A2, 60 nM cAMP, 60 min at room temperature; read-out: hPDE10a2 IC50
Method: Human recombinant PDE10A2 was expressed in Sf9 cells, using a recombinant baculovirus construct containing the full length sequence containing a 6×His sequence following the start Met to allow metal affinity purification of the recombinant protein. Cells were harvested and the phosphodiesterase protein was purified by metal chelate chromatography on Ni-sepharose 6FF.
The affinity of the compounds of Formula (I) for phophodiesterases (PDE) was measured by a scintillation proximity assay (SPA). PDE Yttrium Silicate SPA beads allow PDE activity to be measured by direct binding of the primary phosphate groups of non-cyclic AMP or GMP to the beads via a complex iron chelation mechanism. The amount of bound tritiated product ([^3H]-AMP) is measured by liquid scintillation counting.
The compounds were dissolved and diluted in 100% DMSO in polystyrene plates to a concentration of 100-fold the final concentration in the assay. Human PDE10A enzyme solution (10 μL) was added to 20 μL, of incubation buffer (50 mM Tris pH 7.8, 8.3 mM MgCl2, 1.7 mM EGTA), 10 μL, substrate solution consisting of a mixture of non-tritiated and tritiated substrate (60 nM cAMP, 0.008 μCi ^3H-cAMP), and 0.4 μL, compound in 100% DMSO in a 384-well plate, and incubated for 60 min at room temperature. After incubation, the reaction was stopped with 20 μL, of stop solution, consisting of PDE SPA beads (17.8 mg beads/mL in 18 mM zinc sulphate). After sedimentation of the beads for 30 min, the radioactivity was measured in a Perkin Elmer Topcount scintillation counter and results were expressed as cpm. To measure the low control, no enzyme was added to the reaction mixture.
Data were calculated as the percentage of inhibition of total activity measured in the absence of test compound (% control).

Rat recombinant PDE10a (rPDE10a), sequence (Q9QYJ6 whole entry): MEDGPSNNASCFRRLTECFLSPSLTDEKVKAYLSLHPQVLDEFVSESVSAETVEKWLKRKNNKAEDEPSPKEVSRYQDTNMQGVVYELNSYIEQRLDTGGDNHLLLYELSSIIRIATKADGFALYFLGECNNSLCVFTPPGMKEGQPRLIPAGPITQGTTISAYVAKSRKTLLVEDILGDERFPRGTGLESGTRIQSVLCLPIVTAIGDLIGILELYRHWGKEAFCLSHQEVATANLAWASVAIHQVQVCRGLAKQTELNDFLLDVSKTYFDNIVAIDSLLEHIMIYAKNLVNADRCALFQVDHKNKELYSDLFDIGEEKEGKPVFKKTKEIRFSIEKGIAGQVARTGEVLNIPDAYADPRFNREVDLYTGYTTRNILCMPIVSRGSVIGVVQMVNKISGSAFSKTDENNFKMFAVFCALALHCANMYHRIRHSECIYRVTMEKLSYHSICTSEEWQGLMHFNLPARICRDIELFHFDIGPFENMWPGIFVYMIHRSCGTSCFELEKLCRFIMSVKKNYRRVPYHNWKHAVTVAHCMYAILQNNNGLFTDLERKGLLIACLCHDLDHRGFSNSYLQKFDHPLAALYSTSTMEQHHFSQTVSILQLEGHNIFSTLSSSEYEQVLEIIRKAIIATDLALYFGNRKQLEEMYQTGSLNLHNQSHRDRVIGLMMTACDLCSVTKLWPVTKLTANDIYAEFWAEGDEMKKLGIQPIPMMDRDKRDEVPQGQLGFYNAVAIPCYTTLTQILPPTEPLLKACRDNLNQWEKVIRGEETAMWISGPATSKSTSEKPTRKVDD
Human recombinant PDE10A2, sequence (Q9Y233 267-1055): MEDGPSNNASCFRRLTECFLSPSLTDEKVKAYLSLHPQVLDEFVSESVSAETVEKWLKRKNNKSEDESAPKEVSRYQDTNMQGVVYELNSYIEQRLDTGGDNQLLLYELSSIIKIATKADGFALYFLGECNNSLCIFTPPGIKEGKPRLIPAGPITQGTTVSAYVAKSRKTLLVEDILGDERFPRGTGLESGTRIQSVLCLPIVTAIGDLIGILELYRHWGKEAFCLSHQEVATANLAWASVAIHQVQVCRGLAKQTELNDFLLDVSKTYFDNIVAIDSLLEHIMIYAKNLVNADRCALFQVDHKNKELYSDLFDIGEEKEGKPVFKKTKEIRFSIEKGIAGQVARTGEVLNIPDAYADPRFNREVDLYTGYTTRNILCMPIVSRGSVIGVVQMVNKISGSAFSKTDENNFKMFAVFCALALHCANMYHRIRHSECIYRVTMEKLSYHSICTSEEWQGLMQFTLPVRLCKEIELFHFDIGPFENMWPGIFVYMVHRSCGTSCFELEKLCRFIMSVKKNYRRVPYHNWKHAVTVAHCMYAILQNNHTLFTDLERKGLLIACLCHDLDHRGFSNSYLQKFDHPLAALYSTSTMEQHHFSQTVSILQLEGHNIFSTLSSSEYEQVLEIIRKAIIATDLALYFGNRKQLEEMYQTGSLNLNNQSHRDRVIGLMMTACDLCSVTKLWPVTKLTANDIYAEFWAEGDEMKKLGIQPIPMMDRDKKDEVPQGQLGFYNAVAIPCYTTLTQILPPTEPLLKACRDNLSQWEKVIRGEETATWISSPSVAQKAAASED

Work on `CC(C)[C@H](NC(=O)c1ccc(-c2cnc(N3CCOCC3)c3nc(/C=C/c4ccc5ccccc5n4)cn23)cc1)C(=O)O` [Cpd 44, (S,E)-3-Methyl-2-(4-(8-morpholino-2-(2-(quinolin-2-yl)vinyl)imidazo[1,2-a]pyrazin-5-yl)benzamido)butanoic acid trifluoroacetic acid salt] yielded an IC50 [1] of 9 nM and an IC50 [2] of 14 nM.
Compound `O=C(O)[C@@H]1CCCN1C(=O)c1ccc(-c2cnc(N3CCOCC3)c3nc(/C=C/c4ccc5ccccc5n4)cn23)cc1` [Cpd 45, (S,E)-1-(4-(8-Morpholino-2-(2-(quinolin-2-yl)vinyl)imidazo[1,2-a]pyrazin-5-yl)benzoyl)pyrrolidine-2-carboxylic acid trifluoroacetic acid salt] has an IC50 [1] of 23 nM and an IC50 [2] of 20 nM.
`O=C(O)CNC(=O)c1ccc(-c2cnc(N3CCOCC3)c3nc(CCc4ccc5ccccc5n4)cn23)cc1` [Cpd 46, 2-(4-(8-Morpholino-2-(2-(quinolin-2-yl)ethyl)imidazo[1,2-a]pyrazin-5-yl)benzamido)acetic acid] showed an IC50 [1] of 4 nM and an IC50 [2] of 7 nM.
`Cn1nc(-c2ccc(-c3cnc(N4CCOCC4)c4nc(/C=C/c5ccc6ccccc6n5)cn34)cc2)[nH]c1=O` [Cpd 47, (E)-2-Methyl-5-(4-(8-morpholino-2-(2-(quinolin-2-yl)vinyl)imidazo[1,2-a]pyrazin-5-yl)phenyl)-2H-1,2,4-triazol-3(4H)-one] showed an IC50 [1] of 15 nM and an IC50 [2] of 34 nM.
For `O=C1NC(=O)C(c2ccc(-c3cnc(N4CCOCC4)c4nc(/C=C/c5ccc6ccccc6n5)cn34)cc2)O1` (stereo not drawn) [Cpd 48, (E)-5-(4-(8-Morpholino-2-(2-(quinolin-2-yl)vinyl)imidazo[1,2-a]pyrazin-5-yl)phenyl)oxazolidine-2,4-dione], the IC50 [1] was 37 nM and the IC50 [2] was 11 nM.
Compound `Cc1cc(S(=O)(=O)NC(C)C)ccc1-c1cnc(N2CCOCC2)c2nc(/C=C/c3ccc4ccccc4n3)cn12` [Cpd 49, (E)-N-isopropyl-3-methyl-4-(8-morpholino-2-(2-(quinolin-2-yl)vinyl)imidazo[1,2-a]pyrazin-5-yl)benzenesulfonamide] has an IC50 [1] of 98 nM and an IC50 [2] of 155 nM.
`O=C(O)CNC(=O)c1ccc(-c2cnc(N3CCOCC3)c3nc(/C=C/c4ccc5ccccc5n4)cn23)cc1` [Cpd 50, (E)-2-(4-(8-Morpholino-2-(2-(quinolin-2-yl)vinyl)imidazo[1,2-a]pyrazin-5-yl)benzamido)acetic acid] was tested, and the IC50 [1] was 17 nM and the IC50 [2] was 18 nM.
In the case of `Oc1ncn(-c2ccc(-c3cnc(N4CCOCC4)c4nc(CCc5ccc6ccccc6n5)cn34)cc2)n1` [Cpd 51, 1-(4-(8-Morpholino-2-(2-(quinolin-2-yl)ethyl)imidazo[1,2-a]pyrazin-5-yl)phenyl)-1H-1,2,4-triazol-3-ol], the IC50 [1] is reported as 5 nM and the IC50 [2] is reported as 4 nM.
Compound `O=C1NS(=O)(=O)c2cc(-c3cnc(N4CCOCC4)c4nc(CCc5ccc6ccccc6n5)cn34)ccc21` [Cpd 54, 6-(8-Morpholino-2-(2-(quinolin-2-yl)ethyl)imidazo[1,2-a]pyrazin-5-yl)benzo[d]isothiazol-3(2H)-one 1,1-dioxide trifluoroacetic acid salt] has an IC50 [1] of 1 nM and an IC50 [2] of 1 nM.
Compound `O=c1ncn(-c2ccc(-c3cnc(N4CCOCC4)c4nc(/C=C/c5ccc6ccccc6n5)cn34)cc2)[nH]1` [Cpd 56, (E)-1-(4-(8-Morpholino-2-(2-(quinolin-2-yl)vinyl)imidazo[1,2-a]pyrazin-5-yl)phenyl)-1,2-dihydro-1,2,4-triazol-3-one] has an IC50 [1] of 15 nM and an IC50 [2] of 14 nM.
In the case of `O=C1NC(=O)C(c2ccc(-c3cnc(N4CCOCC4)c4nc(/C=C/c5ccc6ccccc6n5)cn34)cc2)N1` (stereo not drawn) [Cpd 57, (E)-5-(4-(8-Morpholino-2-(2-(quinolin-2-yl)vinyl)imidazo[1,2-a]pyrazin-5-yl)phenyl)imidazolidine-2,4-dione 2,2,2-trifluoroacetate], the IC50 [1] is reported as 48 nM and the IC50 [2] is reported as 46 nM.
For `O=c1[nH]ncn1-c1ccc(-c2cnc(N3CCOCC3)c3nc(/C=C/c4ccc5ccccc5n4)cn23)cc1` [Cpd 58, (E)-4-(4-(8-morpholino-2-(2-(quinolin-2-yl)vinyl)imidazo[1,2-a]pyrazin-5-yl)phenyl)-1H-1,2,4-triazol-5(4H)-one], the IC50 [1] was 132 nM and the IC50 [2] was 91 nM.
`O=c1[nH]c2ccc(-c3cnc(N4CCOCC4)c4nc(CCc5ccc6ccccc6n5)cn34)cc2o1` [Cpd 64, 6-(8-morpholino-2-(2-(quinolin-2-yl)ethyl)imidazo[1,2-a]pyrazin-5-yl)benzo[d]oxazol-2(3H)-one trifluoroacetic acid salt] was tested, and the IC50 [1] was 22 nM and the IC50 [2] was 13 nM.
For `O=c1[nH]ncn1-c1ccc(-c2cnc(N3CCOCC3)c3nc(CCc4ccc5ccccc5n4)cn23)cc1` [Cpd 65, 4-(4-(8-Morpholino-2-(2-(quinolin-2-yl)ethyl)imidazo[1,2-a]pyrazin-5-yl)phenyl)-1H-1,2,4-triazol-5(4H)-one], the IC50 [1] was 60 nM and the IC50 [2] was 38 nM.
Compound `O=C(O)CNc1ccc(-c2cnc(N3CCOCC3)c3nc(/C=C/c4ccc5ccccc5n4)cn23)cn1` [Cpd 66, (E)-2-(5-(8-Morpholino-2-(2-(quinolin-2-yl)vinyl)imidazo[1,2-a]pyrazin-5-yl)pyridin-2-ylamino)acetic acid trifluoroacetic acid salt] has an IC50 [1] of 3 nM and an IC50 [2] of 2 nM.
`c1ccc2nc(CCc3cn4c(-c5ccc(-c6nnc[nH]6)nc5)cnc(N5CCOCC5)c4n3)ccc2c1` [Cpd 67, 4-(5-(6-(4H-1,2,4-Triazol-3-yl)pyridin-3-yl)-2-(2-(quinolin-2-yl)ethyl)imidazo[1,2-a]pyrazin-8-yl)morpholine] showed an IC50 [1] of 4 nM and an IC50 [2] of 5 nM.
For `c1ccc2nc(SCc3cn4c(-c5ccc(-c6nnn[nH]6)nc5)cnc(N5CCOCC5)c4n3)ccc2c1` [Cpd 70, 4-(5-(6-(1H-Tetrazol-5-yl)pyridin-3-yl)-2-((quinolin-2-ylthio)methyl)imidazo[1,2-a]pyrazin-8-yl)morpholine], the IC50 [1] was 1 nM and the IC50 [2] was 2 nM.
`O=C(Nc1ccc(-c2cnc(N3CCOCC3)c3nc(/C=C/c4ccc5ccccc5n4)cn23)cc1)N(CCO)CCO` [Cpd 71, (E)-1,1-bis(2-hydroxyethyl)-3-(4-(8-morpholino-2-(2-(quinolin-2-yl)vinyl)imidazo[1,2-a]pyrazin-5-yl)phenyl)urea] was tested, and the IC50 [1] was 63 nM and the IC50 [2] was 44 nM.
Work on `O=C(NCCO)Nc1ccc(-c2cnc(N3CCOCC3)c3nc(/C=C/c4ccc5ccccc5n4)cn23)cc1` [Cpd 72, (E)-1-(2-Hydroxyethyl)-3-(4-(8-morpholino-2-(2-(quinolin-2-yl)vinyl)imidazo[1,2-a]pyrazin-5-yl)phenyl)urea] yielded an IC50 [1] of 46 nM and an IC50 [2] of 31 nM.
`O=S(=O)(NCCO)c1ccc(-c2cnc(N3CCOCC3)c3nc(/C=C/c4ccc5ccccc5n4)cn23)cc1` [Cpd 73, (E)-N-(2-Hydroxyethyl)-4-(8-morpholino-2-(2-(quinolin-2-yl)vinyl)imidazo[1,2-a]pyrazin-5-yl)benzenesulfonamide] gave an IC50 [1] of 40 nM and an IC50 [2] of 26 nM.
`Oc1nc(-c2cnc(N3CCOCC3)c3nc(COc4ccc5ccccc5n4)cn23)no1` [Cpd 75, 3-(8-Morpholino-2-((quinolin-2-yloxy)methyl)imidazo[1,2-a]pyrazin-5-yl)-1,2,4-oxadiazol-5-ol] gave an IC50 [1] of less than 1 nM and an IC50 [2] of less than 1 nM.
Work on `c1ccc2nc(CCc3cn4c(-c5ccc(-c6nnn[nH]6)nc5)cnc(N5CCOCC5)c4n3)ccc2c1` [Cpd 77, 4-(5-(6-(1H-Tetrazol-5-yl)pyridin-3-yl)-2-(2-(quinolin-2-yl)ethyl)imidazo[1,2-a]pyrazin-8-yl)morpholine] yielded an IC50 [1] of less than 30 nM and an IC50 [2] of 1 nM.
Work on `CS(=O)(=O)Nc1ccc(-c2cnc(N3CCOCC3)c3nc(CCc4ccc5ccccc5n4)cn23)cn1` [Cpd 78, N-(5-(8-Morpholino-2-(2-(quinolin-2-yl)ethyl)imidazo[1,2-a]pyrazin-5-yl)pyridin-2-yl)methanesulfonamide] yielded an IC50 [1] of less than 1 nM and an IC50 [2] of 1 nM.
With `Oc1nc2ncc(-c3cnc(N4CCOCC4)c4nc(CCc5ccc6ccccc6n5)cn34)cc2[nH]1` [Cpd 79, 6-(8-Morpholino-2-(2-(quinolin-2-yl)ethyl)imidazo[1,2-a]pyrazin-5-yl)-1H-imidazo[4,5-b]pyridin-2-ol] the IC50 [1] was 33 nM and the IC50 [2] was 7 nM.
